Reference: US11066369B2, “N-(pyridin-2-yl)pyridine-sulfonamide derivatives and their use in the treatment of disease” (Novartis AG, priority 2016, dated 2021)

Target: T1, horseradish peroxidase (HRP) tagged delF508-CFTR (Homo sapiens, UniProt P13569, DEL508-508)
T1 construct: expressed in transfected cells
Experiment: Measurement of delF508-CFTR-HRP surface expression in CFBE41o- cells;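 on DelF508-CFTR-HRP Amax %: percent efficacy relative to reference corrector lumacaftor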
Format: cell-based
Details: CFBE41o- cells; for EC50: mean of at least two replicates, read-out: DelF508-CFTR-HRP EC50; for Emax: surface expression Amax, read-out: DelF508-CFTR-HRP Amax %
Method in brief: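 Surface-trafficked delF508-CFTR detected via extracellular HRP tag, read as luminescence from a membrane-impermeant substrate in CFBE41o- cells. Cells pre-induced 48h with 500 ng/mL doxycycline, then exposed 24h at 37° C to a 10-point, 3-fold dilution series from 10 μM (DMSO ≤0.5%). Triplicate dose-responses fitted logistically for EC50 after per-plate normalization; fold change versus reference compound.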

T1 sequence (P13569 with tags, fused parts or gaps DEL508-508): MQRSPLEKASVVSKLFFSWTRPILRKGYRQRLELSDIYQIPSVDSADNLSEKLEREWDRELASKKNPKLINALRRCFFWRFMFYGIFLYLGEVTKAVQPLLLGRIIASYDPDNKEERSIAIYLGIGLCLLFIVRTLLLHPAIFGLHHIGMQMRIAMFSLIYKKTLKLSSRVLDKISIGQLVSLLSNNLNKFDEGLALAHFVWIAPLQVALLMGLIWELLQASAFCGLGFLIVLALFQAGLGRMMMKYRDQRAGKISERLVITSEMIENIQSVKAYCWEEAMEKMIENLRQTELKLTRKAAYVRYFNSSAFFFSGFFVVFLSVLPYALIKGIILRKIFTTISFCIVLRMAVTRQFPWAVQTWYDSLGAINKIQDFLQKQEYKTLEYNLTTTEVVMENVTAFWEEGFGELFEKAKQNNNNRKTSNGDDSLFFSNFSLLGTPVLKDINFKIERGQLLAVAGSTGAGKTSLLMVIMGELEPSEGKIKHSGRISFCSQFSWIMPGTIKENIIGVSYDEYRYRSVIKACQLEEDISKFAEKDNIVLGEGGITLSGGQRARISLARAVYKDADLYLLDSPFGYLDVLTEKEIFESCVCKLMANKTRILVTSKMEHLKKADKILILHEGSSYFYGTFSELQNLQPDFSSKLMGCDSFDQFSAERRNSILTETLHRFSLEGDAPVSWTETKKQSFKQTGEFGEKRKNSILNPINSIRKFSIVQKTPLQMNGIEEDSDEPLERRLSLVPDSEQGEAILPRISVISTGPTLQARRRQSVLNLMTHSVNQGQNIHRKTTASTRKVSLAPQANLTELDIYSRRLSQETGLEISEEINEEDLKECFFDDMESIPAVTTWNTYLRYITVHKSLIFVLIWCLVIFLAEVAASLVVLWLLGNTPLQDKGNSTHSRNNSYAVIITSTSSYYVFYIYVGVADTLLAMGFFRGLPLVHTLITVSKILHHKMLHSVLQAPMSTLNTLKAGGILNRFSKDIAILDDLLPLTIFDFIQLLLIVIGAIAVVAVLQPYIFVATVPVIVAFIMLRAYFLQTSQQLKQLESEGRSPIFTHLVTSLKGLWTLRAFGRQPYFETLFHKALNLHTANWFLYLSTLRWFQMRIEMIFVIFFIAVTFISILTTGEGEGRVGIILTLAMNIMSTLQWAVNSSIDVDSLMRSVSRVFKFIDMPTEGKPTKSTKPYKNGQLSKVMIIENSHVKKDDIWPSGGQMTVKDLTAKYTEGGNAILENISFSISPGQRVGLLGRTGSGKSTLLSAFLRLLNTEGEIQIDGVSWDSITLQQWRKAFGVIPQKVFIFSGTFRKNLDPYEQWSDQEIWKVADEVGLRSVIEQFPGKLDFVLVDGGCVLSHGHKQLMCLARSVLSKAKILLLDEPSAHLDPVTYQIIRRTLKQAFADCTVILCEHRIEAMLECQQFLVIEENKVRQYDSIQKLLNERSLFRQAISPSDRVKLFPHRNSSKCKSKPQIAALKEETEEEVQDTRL

Compound | EC50 [nM] | Emax [%]
COc1ccc(Cl)cc1-c1nc(NS(=O)(=O)c2cccc(N3CCC(C)(C(=O)O)CC3)n2)ccc1C(F)(F)F [Example 426, 1-(6-(N-(6-(5-chloro-2-methoxyphenyl)-5-(trifluoromethyl)pyridin-2-yl)sulfamoyl)pyridin-2-yl)-4-methylpiperidine-4-carboxylic Acid] | 2320 | 287
COc1ccc(Cl)cc1-c1nc(NS(=O)(=O)c2cccc(N3CCCC(C)(C(=O)O)C3)n2)ccc1C(F)(F)F (centres unmarked) [Example 432, 1-(6-(N-(6-(5-chloro-2-methoxyphenyl)-5-(trifluoromethyl)pyridin-2-yl)sulfamoyl)pyridin-2-yl)-3-methylpiperidine-3-carboxylic Acid] | 1920 | 596
Cc1ccc(F)cc1-c1nc(NS(=O)(=O)c2cccc(N3CCC[C@](C)(C(=O)O)C3)n2)ccc1C(F)(F)F [Example 435, (3S)-1-(6-{[6-(5-fluoro-2-methylphenyl)-5-(trifluoromethyl)pyridin-2-yl]sulfamoyl}pyridin-2-yl)-3-methylpiperidine-3-carboxylic Acid] | 2300 | 714
Cc1c(F)cccc1-c1nc(NS(=O)(=O)c2cccc(N3CCC[C@](C)(C(=O)O)C3)n2)ccc1C(F)(F)F [Example 436, (3S)-1-(6-{[6-(3-fluoro-2-methylphenyl)-5-(trifluoromethyl)pyridin-2-yl]sulfamoyl}pyridin-2-yl)-3-methylpiperidine-3-carboxylic Acid] | 1770 | 438
Cc1ccc(F)cc1-c1nc(NS(=O)(=O)c2cccc(N3CCCC4(CC4C(=O)O)C3)n2)ccc1C(F)(F)F (centres unmarked) [Example 439, 5-(6-(N-(6-(5-fluoro-2-methylphenyl)-5-(trifluoromethyl)pyridin-2-yl)sulfamoyl)pyridin-2-yl)-5-azaspiro[2.5]octane-1-carboxylic Acid] | 2220 | 264
Cc1c(F)cccc1-c1nc(NS(=O)(=O)c2cccc(N3CCCC4(CC4C(=O)O)C3)n2)ccc1C(F)(F)F (centres unmarked) [Example 440, 5-(6-(N-(6-(3-fluoro-2-methylphenyl)-5-(trifluoromethyl)pyridin-2-yl)sulfamoyl)pyridin-2-yl)-5-azaspiro[2.5]octane-1-carboxylic Acid] | 2540 | 274
Cc1ccccc1-c1nc(NS(=O)(=O)c2cccc(N3CCCC4(CC4C(=O)O)C3)n2)ccc1C(F)(F)F (centres unmarked) [Example 441, 5-(6-(N-(6-(o-tolyl)-5-(trifluoromethyl)pyridin-2-yl)sulfamoyl)pyridin-2-yl)-5-azaspiro[2.5]octane-1-carboxylic Acid] | 2310 | 299
CC1(C(=O)O)CCCN(c2cccc(S(=O)(=O)Nc3ccc(C(F)(F)F)c(-c4ccccc4CO)n3)n2)C1 (centres unmarked) [Example 444, 1-(6-(N-(6-(2-(hydroxymethyl)phenyl)-5-(trifluoromethyl)pyridin-2-yl)sulfamoyl)pyridin-2-yl)-3-methylpiperidine-3-carboxylic Acid] | 4060 | 47.5
CC1(C(=O)O)CCCN(c2cccc(S(=O)(=O)Nc3ccc(C(F)(F)F)c(-c4ccccc4CCO)n3)n2)C1 (centres unmarked) [Example 445, 1-(6-(N-(6-(2-(2-hydroxyethyl)phenyl)-5-(trifluoromethyl)pyridin-2-yl)sulfamoyl)pyridin-2-yl)-3-methylpiperidine-3-carboxylic Acid] | 2660 | 94.1
Cc1ccccc1-c1nc(NS(=O)(=O)c2cccc(N3CCC4(CC3)CC(C(=O)O)C4)n2)ccc1C(F)(F)F [Example 446, 7-(6-(N-(6-(o-tolyl)-5-(trifluoromethyl)pyridin-2-yl)sulfamoyl)pyridin-2-yl)-7-azaspiro[3.5]nonane-2-carboxylic Acid] | 2110 | 278
Cc1ccccc1-c1nc(NS(=O)(=O)c2cccc(N3CCC[C@@](C)(C(=O)O)C3)n2)ccc1Cl [Example 447, (R)-1-(6-(N-(5-chloro-6-(o-tolyl)pyridin-2-yl)sulfamoyl)pyridin-2-yl)-3-methylpiperidine-3-carboxylic Acid] | 2410 | 
COc1ccc(Cl)c(-c2nc(NS(=O)(=O)c3cccc(N4CCC[C@@H](C(=O)O)C4)n3)ccc2C(F)(F)F)c1 [Example 449, (R)-1-(6-(N-(6-(2-chloro-5-methoxyphenyl)-5-(trifluoromethyl)pyridin-2-yl)sulfamoyl)pyridin-2-yl)piperidine-3-carboxylic Acid] | 2370 | 
Cc1ccc(Cl)cc1-c1nc(NS(=O)(=O)c2cccc(N3CCC(C)(C(=O)O)CC3)n2)ccc1C(F)(F)F [Example 451, 1-(6-(N-(6-(5-chloro-2-methylphenyl)-5-(trifluoromethyl)pyridin-2-yl)sulfamoyl)pyridin-2-yl)-4-methylpiperidine-4-carboxylic Acid] | 2680 | 847
CCC1(C(=O)O)CCCN(c2cccc(S(=O)(=O)Nc3ccc(Cl)c(-c4ccccc4C)n3)n2)C1 (centres unmarked) [Example 452, 1-(6-(N-(5-chloro-6-(o-tolyl)pyridin-2-yl)sulfamoyl)pyridin-2-yl)-3-ethylpiperidine-3-carboxylic Acid] | 2360 | 990
COc1ccc(Cl)cc1-c1nc(NS(=O)(=O)c2cccc(N3CCC[C@@](C)(C(=O)O)C3)n2)ccc1C(F)(F)F [Example 455, (R)-1-(6-(N-(6-(5-chloro-2-methoxyphenyl)-5-(trifluoromethyl)pyridin-2-yl)sulfamoyl)pyridin-2-yl)-3-methylpiperidine-3-carboxylic Acid] | 1770 | 899

More lines, in order of falling EC50, values ahead:

EC50 [nM] | Emax [%] | Compound
1730 | 763 | CC1(C(=O)O)CCCN(c2cccc(S(=O)(=O)Nc3ccc(Cl)c(-c4ccccc4C4CC4)n3)n2)C1 (centres unmarked) [Example 431, 1-(6-(N-(5-chloro-6-(2-cyclopropylphenyl)pyridin-2-yl)sulfamoyl)pyridin-2-yl)-3-methylpiperidine-3-carboxylic Acid]
1710 | 370 | CC1(C(=O)O)CCN(c2cccc(S(=O)(=O)Nc3ccc(Cl)c(-c4ccccc4C4CC4)n3)n2)CC1 [Example 430, 1-(6-(N-(5-chloro-6-(2-cyclopropylphenyl)pyridin-2-yl)sulfamoyl)pyridin-2-yl)-4-methylpiperidine-4-carboxylic Acid]
1700 |  | CCC1(C(=O)O)CCCN(c2cccc(S(=O)(=O)Nc3ccc(C(F)(F)F)c(-c4ccccc4C)n3)n2)C1 (centres unmarked) [Example 454, 3-ethyl-1-(6-(N-(6-(o-tolyl)-5-(trifluoromethyl)pyridin-2-yl)sulfamoyl)pyridin-2-yl)piperidine-3-carboxylic Acid]
1680 | 713 | Cc1ccccc1-c1nc(NS(=O)(=O)c2cccc(N3CCC[C@](C)(C(=O)O)C3)n2)ccc1C(F)(F)F [Example 428, (3S)-3-methyl-1-(6-{[6-(2-methylphenyl)-5-(trifluoromethyl)pyridin-2-yl]sulfamoyl}pyridin-2-yl)piperidine-3-carboxylic Acid]
1590 |  | CCC1(C(=O)O)CCCN(c2cccc(S(=O)(=O)Nc3ccc(Cl)c(-c4c(C)cccc4C)n3)n2)C1 (centres unmarked) [Example 453, 1-(6-(N-(5-chloro-6-(2,6-dimethylphenyl)pyridin-2-yl)sulfamoyl)pyridin-2-yl)-3-ethylpiperidine-3-carboxylic Acid]
1560 | 869 | C[C@@]1(C(=O)O)CCCN(c2cccc(S(=O)(=O)Nc3ccc(Cl)c(-c4ccccc4C4CC4)n3)n2)C1 [Example 437, (R)-1-(6-(N-(5-chloro-6-(2-cyclopropylphenyl)pyridin-2-yl)sulfamoyl)pyridin-2-yl)-3-methylpiperidine-3-carboxylic Acid]
1490 |  | Cc1cccc(C)c1-c1nc(NS(=O)(=O)c2cccc(N3CCC[C@@](C)(C(=O)O)C3)n2)ccc1Cl [Example 448, (R)-1-(6-(N-(5-chloro-6-(2,6-dimethylphenyl)pyridin-2-yl)sulfamoyl)pyridin-2-yl)-3-methylpiperidine-3-carboxylic Acid]
1220 |  | CCCc1ccccc1-c1nc(NS(=O)(=O)c2cccc(N3CCC[C@](C)(C(=O)O)C3)n2)ccc1C(F)(F)F [Example 425, (S)-3-methyl-1-(6-(N-(6-(2-propylphenyl)-5-(trifluoromethyl)pyridin-2-yl)sulfamoyl)pyridin-2-yl)piperidine-3-carboxylic Acid]
1100 |  | Cc1ccc(Cl)cc1-c1nc(NS(=O)(=O)c2cccc(N3CCC[C@@](C)(C(=O)O)C3)n2)ccc1C(F)(F)F [Example 450, (R)-1-(6-(N-(6-(5-chloro-2-methylphenyl)-5-(trifluoromethyl)pyridin-2-yl)sulfamoyl)pyridin-2-yl)-3-methylpiperidine-3-carboxylic Acid]
838 | 541 | C[C@]1(C(=O)O)CCCN(c2cccc(S(=O)(=O)Nc3ccc(C(F)(F)F)c(-c4ccccc4C4CC4)n3)n2)C1 [Example 429, (S)-1-(6-(N-(6-(2-cyclopropylphenyl)-5-(trifluoromethyl)pyridin-2-yl)sulfamoyl)pyridin-2-yl)-3-methylpiperidine-3-carboxylic Acid]
638 | 282 | CC(C)Oc1ccc(Cl)cc1-c1nc(NS(=O)(=O)c2cccc(N3CCC(C)(C(=O)O)CC3)n2)ccc1C(F)(F)F [Example 427, 1-(6-(N-(6-(5-chloro-2-isopropoxyphenyl)-5-(trifluoromethyl)pyridin-2-yl)sulfamoyl)pyridin-2-yl)-4-methylpiperidine-4-carboxylic Acid]
436 | 571 | CC(C)Oc1ccc(Cl)cc1-c1nc(NS(=O)(=O)c2cccc(N3CCCC(C)(C(=O)O)C3)n2)ccc1C(F)(F)F (centres unmarked) [Example 433, 1-(6-(N-(6-(5-chloro-2-isopropoxyphenyl)-5-(trifluoromethyl)pyridin-2-yl)sulfamoyl)pyridin-2-yl)-3-methylpiperidine-3-carboxylic Acid]
